Key:
[1] = system: platelet rich plasma (PRP); test: Collagen-induced platelet aggregation in platelet rich plasma (light aggregometry); type: cell-based, human
Protocol: PRP and WP (2.5×10^8 platelets ml^−1) were prepared from blood. Briefly 36 ml whole blood was collected into 4 ml of 3.15% sodium citrate; this was centrifuged at 250 ¥g for 20 min (with gentle acceleration and deceleration). At this point PRP, which had separated from white blood cells and red blood cells, was gently removed. When WP were required this PRP was centrifuged at 700 g for 10 min (with gentle acceleration and deceleration) in the presence of prostacyclin. The platelet-poor plasma (PPP) was removed and the platelet pellet was washed three times with Tyrode's buffer, before being re-suspended in Tyrode's buffer to a concentration of 2.5 ¥108 platelets/ml.
Platelet aggregation was measured by light aggregometry. […] Aggregation was initiated by the addition of agonists, and monitored by Aggro-Link software for at least 6 min.
To study the aggregatory potency of ADP, the concentration-response (0.3-10 μM) curves were generated. Collagen at different concentrations (2-5 μg/ml) was also used to induce platelet aggregation. Submaximal concentrations of agonists, i.e. the concentrations that gave approximately 95% of the maximal aggregation were used to study the effects of inhibitors of aggregation. Aspirin and aspirin prodrugs was incubated for various intervals prior to the addition of aggregating agents.
Eserine (in DMSO, 10 μM, giving a final concentration≦0.25% DMSO, which pilot studies had determined not to affect platelet aggregation) was preincubated with PRP or WP for 5 min in the aggregometer with stirring at 900 r.p.m. before the addition of test compounds (ST0701-05), which were incubated in PRP or WP for a further 10 min prior to the addition of an agonist (10 μM ADP or 5 μg/ml Collagen) to induce platelet aggregation.

[2] = GI tolerability testing: gastric ulcerogenic effect in rats; type: in vivo; details: rat, aspirin 30 mg/Kg daily or molar equivalent doses, oral gavage, 3 days
Protocol: In this study, rats are fed Aspirin 30 mg/Kg daily or molar equivalent doses of ISAS, ISANA (“Nicotinate”), ISANO “Meta” nitrate or ISAMNA in oral gavage daily for 3 days (n=3 per group). At the end of the dosing period, all animals were sacrificed, stomachs removed and were immersed in 2% formalin for at least 10 min to fix the gastric tissue wall, and will opened along the greater curvature for scoring for irritation or hemorrhagic lesions or ulcers developed in the corpus mucosa under a dissecting microscope on a 5-point scale. The percentage of stomach surface area showing ulcers was recorded for each animal and expressed as a percentage.

59M cells = test: Tumour cell-induced platelet aggregation (TCIPA), static conditions, 59M; type: cell-based, human; details: for inhibition of TCIPA induced by 59M: static, WP, 300 and 500 μM, 59M 1×10^3/ml
Description: ISAS meanwhile is hydrolysed to aspirin and salicylic acid. […] The structure of platelet-tumor cell aggregates was studied using phase-contrast microscopy (Alonso-Escolano et al., 2004; Jurasz et al., 2001). […] Aliquots of each sample were then taken for phase-contrast microscopy examination using an Olympus CKX41 microscope (Olympus America Inc., […].). Photomicrographs were captured using a digital camera and MicroFire (Olympus America Inc.) software (Alonso-Escolano et al., 2004; Jurasz et al., 2001).

washed platelet samples = test: Collagen-induced platelet aggregation in the TCIPA studies (washed platelets); type: cell-based, human; details: Homo sapiens, Platelet; aspirin 300 μM, n=4
CaCo2 cells = test: Tumour cell-induced platelet aggregation (TCIPA), static conditions, Caco-2
Protocol: Three human tumor cell lines, 59M ovarian adenocarcinoma, Caco-2 colon adenocarcinoma and HT1080 fibrocarcinoma cells, were obtained from the European Cell Culture Collection. Cell lines were cultured as monolayers in 75 ml culture flasks at 37° C. in a humidified atmosphere with 5% CO2. 59M cells and HT1080 were cultured in Dulbecco's […] (DMEM) supplemented with 10% fetal bovine serum (FBS) and gentamycin (0.05 mg/ml), penicillin (0.06 mg/ml), and streptomycin (0.01 mg/ml). Caco-2 cell line was cultured in Minimum Essential Medium (MEM) supplemented with 20% FBS and the same antibiotics as above. The cells were supplied with fresh medium and subcultured three times each week.
Washed platelet suspensions (2.5×10^11 platelets 1^−1) were prepared from blood an mixed with the anticoagulant sodium citrate (0.315% final concentration).
The interactions between platelets and tumor cells were measured by light aggregometry (Alonso-Escolano et al., 2004; Jurasz et al., 2001b; Radomski et al., 1991). […] TCIPA was initiated by the addition of cancer cells, and monitored by Aggro-Link software for at least 30 min. […]
To study whether or not aspirin prodrugs had any direct effect on tumour cells, nictoinate was preincubated with different cell lines and added to the platelet suspension. TCIPA was monitored for at least 30 min.

[3] = 200 μM in PRP, collagen 5 μg/ml

Row | Compound | effect of eserine on inhibition of collagen-induced aggregation in PRP ([1]; compounds 300 μM, physostigmine (eserine) 10 μM) | gastric ulcerogenic effect [2] | inhibition of TCIPA induced by 59M (59M cells) | inhibition of TCIPA induced by 59M (59M cells; listed as aspirin) | inhibition at 300 µM (washed platelet samples) [%] | inhibition of aggregation following 0-5 min preincubation [1, 3] | preincubation time at which inhibition is maximal [1, 3] [min] | effect on TCIPA when tumour cells were preincubated with compound (CaCo2 cells; Caco2 cells preincubated) | inhibition of TCIPA induced by Caco-2 (CaCo2 cells; static, WP, 300 and 500 μM, CaCo2 1.5×10^3/ml) | effect on TCIPA when tumour cells were preincubated with compound (59M cells; 59M cells preincubated)
1 | CC(=O)Oc1ccccc1C(=O)O [Aspirin] | did not exert significant effects | significant gastric ulcerogenic effect | did not exert any significant effect | did not exert a significant effect | 56 ± 7 |  |  |  |  | 
2 | CC(=O)Oc1ccccc1C(=O)O[C@H]1CO[C@H]2[C@@H]1OC[C@H]2OC(=O)c1cccnc1 [ST0702, isosorbide-2-aspirinate-5-nicotinate] |  |  | consistently inhibited TCIPA |  |  | No significant inhibition | 15 to 20 | no effect on TCIPA | consistently inhibited TCIPA | no effect on TCIPA
